Tests used:
[1] = system: CCRF-CEM; settings: CCRF-CEM (Leukemia)
[2] = system: K-562; settings: K-562 (Leukemia)
[3] = system: MOLT-4; settings: MOLT-4 (Leukemia)
[4] = system: RPM1-8226; settings: RPM1-8226 (Leukemia)
[5] = system: SR; settings: SR (Leukemia)
[6] = system: EKVX; settings: EKVX (Non-Small Cell Lung Cancer)
[7] = system: HOP-62; settings: HOP-62 (Non-Small Cell Lung Cancer)
[8] = system: NCI-H23; settings: NCI-H23 (Non-Small Cell Lung Cancer)
[9] = system: NCI-H522; settings: NCI-H522 (Non-Small Cell Lung Cancer)
[10] = system: HCT-116; settings: HCT-116 (Colon Cancer)
[11] = system: HCT-15; settings: HCT-15 (Colon Cancer)
[12] = system: HT29; settings: HT29 (Colon Cancer)
[13] = system: SF-268; settings: SF-268 (CNS Cancer)
[14] = system: SF-295; settings: SF-295 (CNS Cancer)
[15] = system: SNB-19; settings: SNB-19 (CNS Cancer)
[16] = system: SNB-75; settings: SNB-75 (CNS Cancer)
[17] = system: M14; settings: M14 (Melanoma)
[18] = system: SK-MEL-2; settings: SK-MEL-2 (Melanoma)
[19] = system: SK-MEL-5; settings: SK-MEL-5 (Melanoma)
[20] = system: UACC-62; settings: UACC-62 (Melanoma)
[21] = system: OVCAR-3; settings: OVCAR-3 (Ovarian Cancer)
[22] = system: OVCAR-4; settings: OVCAR-4 (Ovarian Cancer)
[23] = system: 786-0; settings: 786-0 (Renal Cancer)
[24] = system: CAKI-1; settings: CAKI-1 (Renal Cancer)
[25] = system: RXF 393; settings: RXF 393 (Renal Cancer)
[26] = system: TK-10; settings: TK-10 (Renal Cancer)
[27] = system: MDA-MB-231/ATCC; settings: MDA-MB-231/ATCC (Breast Cancer)
[28] = system: MDA-MB-435; settings: MDA-MB-435 (Breast Cancer)
[29] = system: BT-549; settings: BT-549 (Breast Cancer)
[30] = system: T-47D; settings: T-47D (Breast Cancer)
[31] = system: PC-3; test: in vitro antiproliferation assay, Prostate Cancer; settings: PC-3 (Prostate Cancer)

`COc1cc(Nc2ncc(F)c(Nc3ccc4c(n3)NC(=O)C(C)(C)O4)n2)cc(OC)c1OC.O=S(=O)(O)c1ccccc1` [Compound 1 (besylate salt), N4-(2,2-Dimethyl-3-oxo-4H-5-pyrid[1,4]oxazin-6-yl)-5-fluoro-N2-(3,4,5-trimethoxyphenyl)-2,4-pyrimidinediamine Benzenesulfonic Acid Salt] was tested, and the TGI [1] was >1.00E−4, the CC50 ([1]; read-out: LC50) was > 100 µM and the GI50 [2] was > 100 µM. The TGI [2] was >1.00E−4, the CC50 ([2]; read-out: LC50) was > 100 µM and the GI50 [3] was 4.82 µM. For the same molecule, the TGI [3] was >1.00E−4, the CC50 ([3]; read-out: LC50) was > 100 µM and the GI50 [4] was > 100 µM. The TGI [4] was >1.00E−4, the CC50 ([4]; read-out: LC50) was > 100 µM and the GI50 [5] was 3.56 µM. The TGI [5] was >1.00E−4, the CC50 ([5]; read-out: LC50) was > 100 µM and the GI50 [6] was 1.66 µM. The TGI [6] was >1.00E−4, the CC50 ([6]; read-out: LC50) was > 100 µM and the GI50 [7] was 0.537 µM. For the same molecule, the TGI [7] was >1.00E−4, the CC50 ([7]; read-out: LC50) was > 100 µM and the TGI [8] was >1.00E−4. For the same molecule, the CC50 ([8]; read-out: LC50) was > 100 µM, the TGI [9] was >1.00E−4 and the CC50 ([9]; read-out: LC50) was > 100 µM. The TGI [10] was >1.00E−4, the CC50 ([10]; read-out: LC50) was > 100 µM and the TGI [11] was >1.00E−4. For the same molecule, the CC50 ([11]; read-out: LC50) was > 100 µM, the GI50 [12] was 2.19 µM and the TGI [12] was >1.00E−4. For the same molecule, the CC50 ([12]; read-out: LC50) was > 100 µM, the GI50 [13] was 1.7 µM and the TGI [13] was >1.00E−4. The CC50 ([13]; read-out: LC50) was > 100 µM, the TGI [14] was >1.00E−4 and the CC50 ([14]; read-out: LC50) was > 100 µM. The GI50 [15] was > 100 µM, the TGI [15] was >1.00E−4 and the CC50 ([15]; read-out: LC50) was > 100 µM. The GI50 [16] was 0.871 µM, the TGI [16] was >1.00E−4 and the CC50 ([16]; read-out: LC50) was > 100 µM. The GI50 [17] was > 100 µM, the TGI [17] was >1.00E−4 and the CC50 ([17]; read-out: LC50) was > 100 µM. For the same molecule, the GI50 [18] was > 100 µM, the TGI [18] was >1.00E−4 and the CC50 ([18]; read-out: LC50) was > 100 µM. For the same molecule, the GI50 [19] was > 100 µM, the TGI [19] was >1.00E−4 and the CC50 ([19]; read-out: LC50) was > 100 µM. The TGI [20] was >1.00E−4, the CC50 ([20]; read-out: LC50) was > 100 µM and the GI50 [21] was > 100 µM. The TGI [21] was >1.00E−4, the CC50 ([21]; read-out: LC50) was > 100 µM and the GI50 [22] was > 100 µM. For the same molecule, the TGI [22] was >1.00E−4, the CC50 ([22]; read-out: LC50) was > 100 µM and the GI50 [23] was 0.873 µM. The TGI [23] was >1.00E−4, the CC50 ([23]; read-out: LC50) was > 100 µM and the GI50 [24] was 0.0515 µM. The TGI [24] was 2.44E−6, the CC50 ([24]; read-out: LC50) was > 100 µM and the GI50 [25] was 0.196 µM. The TGI [25] was 7.74E−7, the CC50 ([25]; read-out: LC50) was > 100 µM and the TGI [26] was >1.00E−4. The CC50 ([26]; read-out: LC50) was > 100 µM, the TGI [27] was >1.00E−4 and the CC50 ([27]; read-out: LC50) was > 100 µM. For the same molecule, the GI50 [28] was 3.62 µM, the TGI [28] was >1.00E−4 and the CC50 ([28]; read-out: LC50) was > 100 µM. The GI50 [29] was 2.43 µM, the TGI [29] was >1.00E−4 and the CC50 ([29]; read-out: LC50) was > 100 µM. The TGI [30] was >1.00E−4, the CC50 ([30]; read-out: LC50) was > 100 µM and the GI50 [31] was 3.07 µM. The TGI [31] was >1.00E−4 and the CC50 ([31]; read-out: LC50) was > 100 µM.

— patent US20090012045A1, “Methods of Treating Cell Proliferative Disorders” (RIGEL PHARMACEUTICALS, INC., priority 2007, published 2009)
